Earlier results in patent US7824714B2, “Chinese herb extract for treating dementia and preparation method thereof” (Development Center for Biotechnology, priority 2008, dated 2010).

Experiments:
[1] = system: mice having scopolamine dementia and Aβ dementia
[2] = system: brain cells; settings: animal experiments

In the case of `OC[C@H]1O[C@@H](Oc2c(O)cc(O)cc2C=Cc2ccc(O)cc2)[C@H](O)[C@@H](O)[C@@H]1O` [stilbene glucoside compound, 3,4′,5-trihydroxy-2-stilbenyl beta-D-glucoside], the memory capacity [1] is listed as “increasing” and the “damage of brain cells caused by β-amyloid protein and hydrogen peroxide” value [2] is listed as “capable of preventing”.
